# Measured values published in patent US6228866A, “Condensed piperidine compound” (Ono Pharmaceutical Co., Ltd., priority 1997, dated 2001).
# Target: T1, i-NOS (Homo sapiens, UniProt P35228)
# T1 construct: The supernatant was collected as a source of i-NOS; endogenous in cells; host or cells: A549 (human lung epithelial cell line), stimulated with LPS, TNF-alpha, IL-1beta and IFN-gamma; sonicated, 54,000 rpm supernatant
# Assay: i-NOS Inhibition Test
# Type: biochemical
# Details: i-NOS from supernatant of A549 cells stimulated with LPS, TNF-α, IL-1β, INF-γ; 14C-L-arginine substrate; 37° C., 10 minutes; pH 7.8
# Method: The pharmacological activity of the compound of formula (I) according to the present invention on i-NOS was examined by the following test.
# To human lung epithelial cell line of A549 were added 10 μg/ml of lipopolysaccharide (LPS), 10 ng/ml of tumor necrosis factor-α (TNF-α), 5 ng/ml of interleukin-1β (IL-1β), and 100 ng/ml of interferon-γ (INF-γ). Sixteen hours later the cells were ruptured by ultrasonication and centrifuged at 54,000 rpm. The supernatant was collected as a source of i-NOS.
# i-NOS was made to act on ^14 C-labeled L-arginine as a substrate, and L-citrulline produced in the presence of the compound of the invention was determined to calculate the 50% inhibitory concentration of the test compound. More specifically, 10 μl of a 16.8 μM solution of L-[U-^14 C]arginine, 10 μl of the above-prepared i-NOS source, and 10 μl of varied amount of a test compound were added to 70 μl of a solution comprising 50 mM HEPES (N-2-hydroxyethylpiperazine-N'-2-ethanesulfonic acid) (pH 7.8), 1 mM DTT (dithiothreitol), 1 mM NADPH (reduced nicotinamide adenine dinucleotide phosphate), 0.1 mM BH4 (tetrahydrobiopterin), 10 μM FAD (flavin adenine dinucleotide), and 500 units/ml of CaM (calmodulin), and the solution was made to 100 μl. After incubation at 37° C. for 10 minutes, 0.225 ml of a reaction terminating buffer consisting of 100 mM HEPES (pH 5.1 to 5.5) and 10 mM EDTA (ethylenediaminetetraacetic acid) was added while cooling with ice to cease the enzymatic reaction. The reaction solution was passed through a column packed with 0.25 ml of Dowex 50WX-8 (Na^+ form) to remove unreacted L-arginine and the column was washed with 0.45 ml of the reaction terminating buffer to collect an effluent containing L-citrulline. The radioactivity of the effluent was measured with a liquid scintillation counter, which was taken as NOS activity, from which a 50% inhibition concentration of the test compound was obtained.
row,SMILES,IC50
1,C[C@H]1[C@H]2NC(=N)C[C@H](C)[C@@H]12 (relative stereo) [2 (g)],92 nM
2,C[C@H]1CC(=N)N[C@@H]2C[C@H]12 (relative stereo) [3 (a)],90 nM
3,C[C@H]1CC(=N)N[C@@H]2[C@H](Cl)[C@@H]21 (relative stereo) [3 (c)],20 nM
4,C[C@@H]1CC(=N)N[C@@H]2C[C@H]12 (relative stereo) [3 (g)],47 nM
5,C[C@@H]1CC(=N)N[C@@]2(C)C[C@@H]12 (relative stereo) [3 (i)],130 nM
6,C[C@H]1CC(=N)N[C@H]2[C@@H]1C2(Cl)Cl (relative stereo) [4 (a)],57 nM
7,C[C@H]1CC(=N)N[C@H]2[C@@H]1C2(C)C (relative stereo) [compound 1],220 nM
8,"C[C@H]1CC(=N)N[C@H]2[C@@H]1C2(Cl)Cl (single isomer, unassigned) [compound 4]",21 nM
9,C[C@@H]1CC(=N)N[C@H]2C[C@@H]12 [3 (f)],180 nM
10,C[C@H]1CC(=N)N[C@@H]2[C@H](Cl)[C@@H]21 [compound 3],12 nM
11,N=C1CC2(CCN1)CC2 [compound 7],200 nM
